What all share (format): physicochemical
The nature of data set [1]: Measurement of mRNA encapsulation (Quant-iT Ribogreen). Particulars: leptin mRNA in lipid nanoparticles (cationic lipid, DSPC, cholesterol, stealth lipid). As to the method:
All equipment and disposable supplies were certified free of RNase activity by the manufacturer or rendered RNase free by use of the RNaseZap reagent (LifeTechnologies). mRNA was encapsulated at a cationic lipid amine to mRNA phosphate (N:P) molar ratio of 4:1. Lipids (cationic lipid, DSPC, cholesterol and lipidated PEG or stealth lipid) were dissolved in ethanol. The molar ratios were […], respectively. The mixture was sonicated briefly, then gently agitated for 5 minutes and then maintained at 37° C. until use. mRNA was exchanged into citrate buffer pH 5.8-6.0 by use of Amicon Ultra-15 centrifugal concentrators, and the final concentration was adjusted to 0.5 mg/ml and held at 37° C. until use. An equal volume of lipids in ethanol, mRNA in citrate buffer, and citrate buffer alone were drawn into disposable syringes. Tubing leading from syringes containing lipids and mRNA are attached to the T junction, and tubing leading from the syringe containing citrate buffer alone was paired with the tubing exiting the T-junction over a collection vessel containing a stir bar on an active stir plate. Syringes were placed in a syringe pump set to expel contents at a flow rate of 1 ml per minute.
The pump was activated, and the collected mRNA in lipid nanoparticles was transferred to SnakeSkin dialysis tubing (10,000 MWCO, Thermo Scientific). Material was dialyzed against RNAse- and pyrogen-free 1× phosphate buffered saline overnight at 4° C.
Percent encapsulation of mRNA in lipid nanoparticles was determined using the Quant-iT Ribogreen RNA Assay kit (Life Technologies). The LNP-mRNA suspension was assayed in buffer (mRNA outside the particle), and buffer plus Triton X-100 detergent (total mRNA). The difference calculated was the mRNA inside the particle. A 1000 ng/mL stock from the RNA provided in the kit was prepared and used to generate a standard curve (0 ng/ml, 15.63-1000 ng/ml) in TE and TE+0.75% Triton X-100. LNP-mRNA samples in TE buffer and TE buffer+0.75% Triton X-100 were prepared with appropriate dilution so that reading was in the range of standard curve (400-2,000 fold). In a 384-well plate (Costar non-treated #3573) 0.04 ml of standard (in duplicate) or sample (in triplicate) were added per well. Ribogreen reagent was diluted 240-fold in TE buffer and added 0.06 ml per well. The contents of wells were mixed and fluorescence was measured (excitation=480 nm, emission=520 nm). Background values (no RNA) were subtracted from standard and test sample values and the concentrations of RNA were determined in the samples using the standard curves. The percent encapsulation of the sample was determined by dividing the difference in concentrations between sample+triton and sample in buffer alone by the sample+triton concentration.

Data set [2] can be described thus: Polydispersity index (PDI) of lipid nanoparticle (dynamic light scattering). As to the method: Unless indicated otherwise, all PDIs referred to herein are the PDI of the fully formed nanoparticle, as measured by dynamic light scattering on a Malvern Zetasizer. The nanoparticle sample was diluted in phosphate buffered saline (PBS) so that the count rate was approximately 200-400 kcts. The data is presented in Tables 4 and 5 as a weighted average of the intensity measure.

A short description of data set [3]: Particle size of lipid nanoparticle (dynamic light scattering, Malvern Zetasizer). The procedure, abridged:
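Sizes are average diameters of fully formed nanoparticles measured by dynamic light scattering. Samples were diluted in PBS to a count rate of about 200–400 kcts. Values are intensity-weighted Z-average sizes.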

The mark [4] stands for this setting: PLK1-424 siRNA LNP, Chol/DSPC/S010 45/44/9/2.
The mark [5] stands for this setting: leptin mRNA lipid nanoparticles.

For the molecule `CCCCCCCCCCOC(=O)CCCCCCCOc1cc(CN(C)C)cc(OCCCCCCCC(=O)OCCCCCCCCCC)c1` [Example 57, didecyl 8,8′-((5-((dimethylamino)methyl)-1,3-phenylene)bis(oxy))dioctanoate], the “% encapsulation” value in data set [1] is recorded as 96.0%. For the same molecule, the PDI was found to be 0.03 in data set [2] (FVII siRNA LNP, Chol/DSPC/PEG-DMG, molar ratio 45/44/9/2); 0.059 in data set [2] (FVII siRNA LNP, Chol/DSPC/S010, molar ratio 45/44/9/2); 0.038 in data set [2] (setting [4]); 0.102 in data set [2] (setting [5]). Further, the “Size (nm)” value in data set [3] (FVII siRNA LNP, Chol/DSPC/PEG-DMG, molar ratio 45/44/9/2, Z-average) was found to be 108.4 nm; in data set [3] (FVII siRNA LNP, Chol/DSPC/S010, molar ratio 45/44/9/2, Z-average) it was 123.8 nm; in data set [3] (setting [4]) it was 116.3 nm; in data set [3] (setting [5]), 127.8 nm.
